The text below walks through data of US20090246273A1, “Ketorolac Sublingual Spray for the Treatment of Pain” (priority 2008, published 2009).

A short description of series [1]: In vivo absorption of ketorolac spray from the sublingual cavity (plasma levels vs intravenous). Also noted: species or system rabbit. Particulars: rabbits. The method, then: These experiments determine the bioavailability of ketorolac after transmucosal administration to the sublingual tissue in rabbit and compare it to that after intravenous administration.
The transmucosal absorption of ketorolac was measured using an in vivo technique in rabbits. Following introduction of lidocaine local anesthesia, a catheter was placed in the marginal ear artery of the rabbit for blood sample collection. For intravenous administration, a catheter was placed in the marginal ear vein of the rabbit and ketorolac aqueous solution (0.5 mg/kg, 0.1 mL) was administered; a sterile drug solution was prepared by filtration (double 0.22 μm filters). A dose of […] ketorolac was injected into the marginal ear vein cannula followed by a 0.1 mL flush with 10% (v/v) heparin/normal saline solution to keep the cannula patent.
For sublingual spray administration, the ketorolac dose (3 mg/kg, 0.1 mL) of the ketorolac formulation was applied by spray to the sublingual mucosa of the rabbit.
Aliquot parts of 0.5 mL blood samples were collected at predetermined time points, collected into pre-heparinized tubes and immediately placed on ice. […]
Bioavailability of sublingually administered drug was calculated by comparing the plasma drug concentration between sublingual and intravenous delivery routes and expressed as a percentage of the intravenous bioavailability. […]

For series [2] the following is noted: rapid metabolism of ketorolac; background on the intravenous mode of delivery; cited from earlier work.

What is called half-life is how long it takes for the measured level to halve. Regarding `O=C(c1ccccc1)c1ccc2n1CCC2C(=O)O` (stereo not drawn) [ketorolac, 5-benzoyl-2,3-dihydro-1H-Pyrrolizine-1-carboxylic acid], the “time of peak plasma concentration following transmucosal administration” value in series [1] (sublingual spray 3 mg/kg single dose, n=3) is reported as “approximately 10 minutes”. Also, the “absorption following transmucosal administration through the sublingual route (comparing areas under the plasma concentration versus time curves)” value in series [1] (sublingual spray 3 mg/kg vs intravenous 0.5 mg/kg, over 180 minutes) is “rapidly and completely absorbed”. For the same compound, the half-life in series [2] is 4 to 5 h.
